Source: the supplement of paper PMC12076712

Columns and labels:
Assay in all cases: pIC50, kinobeads binding competition
DAPK3 = DAPK3 (UniProt O43293); settings: cell material: Lysate mix
How it was run: (§1)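 Fold changes relative to vehicle, from biological duplicates, were fitted with logistic dose-response models in the R drc package to give pIC50. These fold changes came from TMT10 LC-MS/MS quantification of digested Kinobeads-bound proteins. Compound was applied at nine concentrations (top 30 μM) either to live Jurkat cells in 1:4 steps for 60 min at 37 °C before lysis, or to Jurkat lysate or a 1:1:1:1 HEK293/K-562/HepG2/placenta lysate mix in 1:5 steps for 60 min at 4 °C.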

DYRK1A = DYRK1A (UniProt Q13627)
How it was run: as §1

LRRK2 = LRRK2 (UniProt Q5S007); settings: cell material: Lysate mix
How it was run: as §1

MAP3K4 = MAP3K4 (UniProt Q9Y6R4)
How it was run: as §1

MELK = MELK (UniProt Q14680)
How it was run: as §1

NEK3 = target: T1, NEK3 (UniProt P51956)
T1 sequence (whole entry): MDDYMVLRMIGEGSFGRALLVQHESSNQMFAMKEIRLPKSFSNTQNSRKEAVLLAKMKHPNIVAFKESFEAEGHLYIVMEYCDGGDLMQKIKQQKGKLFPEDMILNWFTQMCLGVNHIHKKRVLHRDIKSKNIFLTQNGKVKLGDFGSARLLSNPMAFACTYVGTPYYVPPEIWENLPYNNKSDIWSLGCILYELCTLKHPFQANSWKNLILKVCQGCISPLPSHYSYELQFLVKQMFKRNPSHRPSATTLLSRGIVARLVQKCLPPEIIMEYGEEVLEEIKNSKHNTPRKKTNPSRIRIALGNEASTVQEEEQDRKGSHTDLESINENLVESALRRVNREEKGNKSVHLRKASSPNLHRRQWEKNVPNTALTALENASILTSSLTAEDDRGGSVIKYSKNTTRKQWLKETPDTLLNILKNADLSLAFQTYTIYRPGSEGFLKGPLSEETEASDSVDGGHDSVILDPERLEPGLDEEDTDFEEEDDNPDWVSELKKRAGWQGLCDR
How it was run: as §1

STK35 = STK35 (UniProt Q8TDR2)
How it was run: as §1

TESK2 = TESK2 (UniProt Q96S53)
How it was run: as §1

UniProt O14920 = target: T2, UniProt O14920
T2 sequence (whole entry): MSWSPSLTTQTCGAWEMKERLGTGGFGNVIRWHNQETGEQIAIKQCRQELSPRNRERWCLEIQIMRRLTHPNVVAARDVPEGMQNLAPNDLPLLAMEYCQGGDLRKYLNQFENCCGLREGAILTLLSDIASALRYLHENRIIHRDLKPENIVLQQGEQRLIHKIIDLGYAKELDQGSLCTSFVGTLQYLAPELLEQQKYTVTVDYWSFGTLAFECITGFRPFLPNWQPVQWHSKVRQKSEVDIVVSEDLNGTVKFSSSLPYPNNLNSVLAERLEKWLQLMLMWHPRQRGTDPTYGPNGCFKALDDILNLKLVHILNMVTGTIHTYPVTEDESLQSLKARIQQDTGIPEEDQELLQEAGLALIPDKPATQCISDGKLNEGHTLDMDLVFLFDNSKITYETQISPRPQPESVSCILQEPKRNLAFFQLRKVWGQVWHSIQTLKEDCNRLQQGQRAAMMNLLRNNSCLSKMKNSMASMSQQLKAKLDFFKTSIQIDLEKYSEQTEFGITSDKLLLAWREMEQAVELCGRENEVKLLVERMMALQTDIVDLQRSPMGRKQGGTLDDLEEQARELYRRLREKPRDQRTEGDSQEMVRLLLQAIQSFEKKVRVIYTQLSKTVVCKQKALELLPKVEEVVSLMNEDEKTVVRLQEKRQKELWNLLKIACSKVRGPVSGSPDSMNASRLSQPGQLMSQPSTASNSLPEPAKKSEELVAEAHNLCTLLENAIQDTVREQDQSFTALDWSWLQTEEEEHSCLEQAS
How it was run: as §1

UniProt P35626 = target: T3, UniProt P35626
T3 sequence (whole entry): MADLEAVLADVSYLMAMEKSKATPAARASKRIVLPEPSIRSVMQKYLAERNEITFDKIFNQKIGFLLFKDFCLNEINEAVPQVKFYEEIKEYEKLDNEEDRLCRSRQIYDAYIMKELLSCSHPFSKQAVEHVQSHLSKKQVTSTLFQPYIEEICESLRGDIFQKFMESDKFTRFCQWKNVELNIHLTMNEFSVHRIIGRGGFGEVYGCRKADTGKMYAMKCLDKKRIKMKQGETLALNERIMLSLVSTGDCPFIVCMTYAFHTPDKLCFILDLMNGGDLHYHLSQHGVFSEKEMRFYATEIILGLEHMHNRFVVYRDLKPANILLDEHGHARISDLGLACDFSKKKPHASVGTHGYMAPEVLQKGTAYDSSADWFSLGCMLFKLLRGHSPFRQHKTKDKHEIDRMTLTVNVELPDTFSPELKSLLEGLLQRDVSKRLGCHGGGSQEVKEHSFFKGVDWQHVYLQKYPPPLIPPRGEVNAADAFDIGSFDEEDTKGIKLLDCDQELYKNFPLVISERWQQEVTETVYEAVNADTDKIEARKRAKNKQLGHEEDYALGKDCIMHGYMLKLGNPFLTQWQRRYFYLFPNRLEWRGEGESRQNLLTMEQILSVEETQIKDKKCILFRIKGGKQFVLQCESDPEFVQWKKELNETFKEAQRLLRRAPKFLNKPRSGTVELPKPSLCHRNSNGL
How it was run: as §1

UniProt Q05655 = target: UniProt Q05655
How it was run: as §1

UniProt Q16513 = target: UniProt Q16513
How it was run: as §1

UniProt Q9NYL2 = target: UniProt Q9NYL2
How it was run: as §1

DAPK3, sequence (O43293 whole entry, looked up): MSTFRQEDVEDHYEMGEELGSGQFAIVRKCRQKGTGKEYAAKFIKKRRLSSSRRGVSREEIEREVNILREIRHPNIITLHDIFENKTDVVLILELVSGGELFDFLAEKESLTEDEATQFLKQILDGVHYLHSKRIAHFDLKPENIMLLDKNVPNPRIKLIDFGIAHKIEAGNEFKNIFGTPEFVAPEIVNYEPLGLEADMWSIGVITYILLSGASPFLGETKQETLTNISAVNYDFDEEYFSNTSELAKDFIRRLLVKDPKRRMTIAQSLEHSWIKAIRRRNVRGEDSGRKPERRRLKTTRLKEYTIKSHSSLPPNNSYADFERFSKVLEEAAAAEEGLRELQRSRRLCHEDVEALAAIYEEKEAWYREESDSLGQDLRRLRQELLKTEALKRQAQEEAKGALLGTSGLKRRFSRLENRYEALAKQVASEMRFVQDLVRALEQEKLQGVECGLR
UniProt Q9NYL2, sequence (Q9NYL2 whole entry, looked up): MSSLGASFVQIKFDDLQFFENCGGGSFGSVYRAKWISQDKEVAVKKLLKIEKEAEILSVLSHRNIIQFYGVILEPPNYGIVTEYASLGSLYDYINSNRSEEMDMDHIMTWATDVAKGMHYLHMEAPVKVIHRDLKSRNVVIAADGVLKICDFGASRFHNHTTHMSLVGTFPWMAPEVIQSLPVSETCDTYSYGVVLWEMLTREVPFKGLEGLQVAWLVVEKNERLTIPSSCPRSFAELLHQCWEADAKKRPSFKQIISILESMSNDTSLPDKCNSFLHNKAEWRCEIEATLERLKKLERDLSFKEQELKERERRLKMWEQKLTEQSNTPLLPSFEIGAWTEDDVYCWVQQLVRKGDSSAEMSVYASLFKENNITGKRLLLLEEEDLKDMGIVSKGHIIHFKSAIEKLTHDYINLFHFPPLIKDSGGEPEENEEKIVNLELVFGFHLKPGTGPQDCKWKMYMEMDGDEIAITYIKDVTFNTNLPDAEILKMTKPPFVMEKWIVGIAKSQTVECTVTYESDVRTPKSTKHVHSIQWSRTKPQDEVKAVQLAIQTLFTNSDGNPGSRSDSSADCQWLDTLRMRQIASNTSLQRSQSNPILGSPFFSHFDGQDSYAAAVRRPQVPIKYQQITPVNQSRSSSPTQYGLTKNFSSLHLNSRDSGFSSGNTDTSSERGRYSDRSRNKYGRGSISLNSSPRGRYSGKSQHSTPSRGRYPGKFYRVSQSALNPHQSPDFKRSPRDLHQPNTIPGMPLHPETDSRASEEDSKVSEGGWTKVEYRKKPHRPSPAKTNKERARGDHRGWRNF
MAP3K4, sequence (Q9Y6R4 whole entry): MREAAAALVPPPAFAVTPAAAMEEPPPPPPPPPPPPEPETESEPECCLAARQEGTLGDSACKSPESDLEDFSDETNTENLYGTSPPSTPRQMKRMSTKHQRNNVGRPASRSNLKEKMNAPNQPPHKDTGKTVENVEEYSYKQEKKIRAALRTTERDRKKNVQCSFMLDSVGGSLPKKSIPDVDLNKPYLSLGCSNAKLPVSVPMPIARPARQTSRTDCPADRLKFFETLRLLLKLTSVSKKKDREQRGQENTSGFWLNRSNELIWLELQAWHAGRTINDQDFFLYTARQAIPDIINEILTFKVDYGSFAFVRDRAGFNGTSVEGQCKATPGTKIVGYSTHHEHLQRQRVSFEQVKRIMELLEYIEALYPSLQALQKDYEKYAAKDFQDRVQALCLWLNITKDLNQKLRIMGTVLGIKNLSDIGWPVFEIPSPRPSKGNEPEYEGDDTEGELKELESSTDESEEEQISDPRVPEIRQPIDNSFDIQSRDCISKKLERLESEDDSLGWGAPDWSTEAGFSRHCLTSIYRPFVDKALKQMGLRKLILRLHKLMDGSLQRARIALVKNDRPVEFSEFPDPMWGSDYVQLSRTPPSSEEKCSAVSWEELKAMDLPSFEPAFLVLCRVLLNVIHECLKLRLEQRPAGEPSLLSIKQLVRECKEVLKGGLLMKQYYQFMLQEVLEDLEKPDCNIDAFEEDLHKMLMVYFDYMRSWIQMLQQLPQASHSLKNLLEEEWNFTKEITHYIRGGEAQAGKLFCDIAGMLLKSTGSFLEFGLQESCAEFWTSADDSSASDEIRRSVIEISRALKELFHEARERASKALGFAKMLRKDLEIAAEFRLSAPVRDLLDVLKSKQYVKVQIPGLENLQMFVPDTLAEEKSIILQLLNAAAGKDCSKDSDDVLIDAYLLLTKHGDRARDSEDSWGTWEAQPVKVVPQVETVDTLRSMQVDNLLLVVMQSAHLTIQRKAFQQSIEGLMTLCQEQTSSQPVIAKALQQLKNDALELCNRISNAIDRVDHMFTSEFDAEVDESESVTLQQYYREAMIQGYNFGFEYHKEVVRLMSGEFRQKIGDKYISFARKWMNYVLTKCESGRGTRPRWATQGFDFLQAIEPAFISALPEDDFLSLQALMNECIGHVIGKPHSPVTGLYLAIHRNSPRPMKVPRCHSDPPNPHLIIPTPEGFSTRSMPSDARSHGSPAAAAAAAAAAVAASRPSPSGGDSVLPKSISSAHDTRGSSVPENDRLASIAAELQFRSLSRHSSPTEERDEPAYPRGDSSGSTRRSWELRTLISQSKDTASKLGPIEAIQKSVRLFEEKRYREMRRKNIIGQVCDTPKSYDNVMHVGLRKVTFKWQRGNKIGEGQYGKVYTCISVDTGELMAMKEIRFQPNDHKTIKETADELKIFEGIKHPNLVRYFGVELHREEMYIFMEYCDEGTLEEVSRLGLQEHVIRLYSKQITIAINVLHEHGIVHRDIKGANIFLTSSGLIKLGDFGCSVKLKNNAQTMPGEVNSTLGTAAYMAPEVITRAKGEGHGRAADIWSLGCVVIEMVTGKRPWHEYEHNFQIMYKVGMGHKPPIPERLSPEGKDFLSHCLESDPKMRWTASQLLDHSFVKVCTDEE
TESK2, sequence (Q96S53 whole entry, looked up): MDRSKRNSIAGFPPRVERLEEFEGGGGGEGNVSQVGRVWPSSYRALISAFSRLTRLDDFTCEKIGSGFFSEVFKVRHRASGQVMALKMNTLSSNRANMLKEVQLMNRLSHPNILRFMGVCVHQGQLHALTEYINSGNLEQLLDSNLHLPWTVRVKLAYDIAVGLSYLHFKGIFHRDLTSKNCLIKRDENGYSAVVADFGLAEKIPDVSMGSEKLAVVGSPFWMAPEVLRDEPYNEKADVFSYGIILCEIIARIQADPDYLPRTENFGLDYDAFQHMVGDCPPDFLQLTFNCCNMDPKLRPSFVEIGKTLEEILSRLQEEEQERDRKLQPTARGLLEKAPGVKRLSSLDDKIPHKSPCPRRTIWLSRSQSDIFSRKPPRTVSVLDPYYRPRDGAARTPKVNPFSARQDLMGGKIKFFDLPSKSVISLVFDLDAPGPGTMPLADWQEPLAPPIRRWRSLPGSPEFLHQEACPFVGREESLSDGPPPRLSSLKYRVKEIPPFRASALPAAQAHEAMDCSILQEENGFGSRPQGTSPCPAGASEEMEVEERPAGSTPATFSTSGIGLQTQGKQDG
STK35, sequence (Q8TDR2 whole entry): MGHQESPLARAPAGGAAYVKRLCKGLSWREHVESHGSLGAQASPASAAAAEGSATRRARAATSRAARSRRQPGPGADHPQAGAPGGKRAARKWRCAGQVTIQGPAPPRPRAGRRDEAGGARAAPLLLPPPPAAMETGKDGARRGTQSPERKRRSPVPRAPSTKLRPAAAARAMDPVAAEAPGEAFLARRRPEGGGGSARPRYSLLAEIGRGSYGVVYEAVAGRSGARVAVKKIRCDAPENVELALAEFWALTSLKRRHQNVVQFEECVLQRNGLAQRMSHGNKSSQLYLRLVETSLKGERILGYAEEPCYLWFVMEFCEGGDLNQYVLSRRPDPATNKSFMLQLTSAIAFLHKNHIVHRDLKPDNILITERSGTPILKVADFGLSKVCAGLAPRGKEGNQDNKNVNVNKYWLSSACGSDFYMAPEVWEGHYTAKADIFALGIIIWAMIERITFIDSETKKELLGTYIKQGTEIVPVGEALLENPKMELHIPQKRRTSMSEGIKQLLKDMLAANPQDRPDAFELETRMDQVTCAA
UniProt Q16513, sequence (Q16513 whole entry, looked up): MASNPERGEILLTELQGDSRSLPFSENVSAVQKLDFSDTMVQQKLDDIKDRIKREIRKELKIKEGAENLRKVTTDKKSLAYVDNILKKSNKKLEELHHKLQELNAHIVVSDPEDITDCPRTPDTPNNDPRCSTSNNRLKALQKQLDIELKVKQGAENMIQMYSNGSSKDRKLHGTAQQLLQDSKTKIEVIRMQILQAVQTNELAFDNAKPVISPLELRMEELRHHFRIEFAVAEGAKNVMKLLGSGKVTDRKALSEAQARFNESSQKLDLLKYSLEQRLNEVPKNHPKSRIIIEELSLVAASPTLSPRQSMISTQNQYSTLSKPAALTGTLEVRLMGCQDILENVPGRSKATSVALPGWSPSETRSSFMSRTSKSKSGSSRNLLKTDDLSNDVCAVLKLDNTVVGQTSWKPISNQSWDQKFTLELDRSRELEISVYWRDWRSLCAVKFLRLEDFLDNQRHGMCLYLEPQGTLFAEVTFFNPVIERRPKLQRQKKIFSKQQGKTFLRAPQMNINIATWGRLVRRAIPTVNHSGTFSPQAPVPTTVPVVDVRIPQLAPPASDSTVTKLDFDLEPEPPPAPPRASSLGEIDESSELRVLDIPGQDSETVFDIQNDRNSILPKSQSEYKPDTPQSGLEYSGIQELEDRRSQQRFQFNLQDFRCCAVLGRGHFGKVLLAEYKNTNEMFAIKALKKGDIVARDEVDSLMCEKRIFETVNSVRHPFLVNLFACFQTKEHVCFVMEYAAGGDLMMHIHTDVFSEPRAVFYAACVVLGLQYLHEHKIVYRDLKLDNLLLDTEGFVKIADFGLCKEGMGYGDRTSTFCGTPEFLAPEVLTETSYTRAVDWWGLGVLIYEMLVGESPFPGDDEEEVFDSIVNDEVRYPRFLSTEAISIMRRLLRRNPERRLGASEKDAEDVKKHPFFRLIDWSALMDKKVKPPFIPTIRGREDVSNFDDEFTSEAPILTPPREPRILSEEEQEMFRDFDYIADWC

Row | Structure (SMILES) | pIC50 (DAPK3) | pIC50 (DYRK1A; cell material: Lysate mix) | pIC50 (LRRK2) | pIC50 (MAP3K4; cell material: Lysate mix) | pIC50 (MELK; cell material: Lysate mix) | pIC50 (NEK3; cell material: Lysate mix) | pIC50 (STK35; cell material: Lysate mix) | pIC50 (TESK2; cell material: Lysate mix) | pIC50 (UniProt O14920; cell material: Lysate mix) | pIC50 (UniProt P35626; cell material: Lysate mix) | pIC50 (UniProt Q05655; cell material: Lysate mix) | pIC50 (UniProt Q16513; cell material: Lysate mix) | pIC50 (UniProt Q9NYL2; cell material: Lysate mix) | pIC50 (DYRK1A; cell material: Jurkat cells) | pIC50 (DYRK1A; cell material: Jurkat lysate) | pIC50 (MAP3K4; cell material: Jurkat cells) | pIC50 (MAP3K4; cell material: Jurkat lysate) | pIC50 (MELK; cell material: Jurkat cells) | pIC50 (MELK; cell material: Jurkat lysate) | pIC50 (NEK3; cell material: Jurkat lysate) | pIC50 (STK35; cell material: Jurkat cells) | pIC50 (STK35; cell material: Jurkat lysate) | pIC50 (TESK2; cell material: Jurkat cells) | pIC50 (TESK2; cell material: Jurkat lysate) | pIC50 (UniProt O14920; cell material: Jurkat cells) | pIC50 (UniProt O14920; cell material: Jurkat lysate) | pIC50 (UniProt P35626; cell material: Jurkat cells) | pIC50 (UniProt P35626; cell material: Jurkat lysate) | pIC50 (UniProt Q05655; cell material: Jurkat cells) | pIC50 (UniProt Q05655; cell material: Jurkat lysate) | pIC50 (UniProt Q16513; cell material: Jurkat cells) | pIC50 (UniProt Q16513; cell material: Jurkat lysate) | pIC50 (UniProt Q9NYL2; cell material: Jurkat cells) | pIC50 (UniProt Q9NYL2; cell material: Jurkat lysate)
1 | CCNC(=O)c1cc(Nc2cc(C)[nH]n2)nc(N2CCN(Cc3ccc(S(=O)(=O)F)cc3)CC2)n1 | 5.14 | < 4.52 | 5.28 | 4.8 | < 4.52 | < 4.52 | 6.51 | < 4.52 | < 4.52 | < 4.52 | < 4.52 | < 4.52 | < 4.52 |  |  |  |  |  |  |  |  |  |  |  |  |  |  |  |  |  |  |  |  | 
2 | CCNC(=O)c1cc(Nc2cc(C3CC3)[nH]n2)nc(N2CCN(Cc3ccc(S(=O)(=O)F)cc3)CC2)n1 | 4.83 | < 4.52 | 5.46 | 5.61 | < 4.52 | 5.46 | 6.58 | < 4.52 | < 4.52 | < 4.52 | < 4.52 | < 4.52 | < 4.52 |  |  |  |  |  |  |  |  |  |  |  |  |  |  |  |  |  |  |  |  | 
3 | Cc1cc(Nc2cc(C(=O)NCCNC(=O)OC3CC/C=C/CCC3)nc(N3CCN(Cc4ccc(S(=O)(=O)F)cc4)CC3)n2)n[nH]1 (stereo unspecified) | < 4.52 | < 4.52 | < 4.52 | < 4.52 | < 4.52 | < 4.52 | 4.91 | < 4.52 | < 4.52 | < 4.52 | < 4.52 | < 4.52 | < 4.52 |  |  |  |  |  |  |  |  |  |  |  |  |  |  |  |  |  |  |  |  | 
4 | C#CCNC(=O)c1cc(Nc2cc(C3CC3)[nH]n2)nc(N2CCN(Cc3ccc(S(=O)(=O)F)cc3)CC2)n1 | < 4.52 |  | 5.64 | 5.74 | < 4.52 | 5.7 | 6.96 | < 4.52 | < 4.52 |  | < 4.52 | < 4.52 | < 4.52 | 5.41 | < 4.52 | 6.09 | 4.81 | < 4.52 | < 4.52 | 4.66 | 6.96 | 6.1 | < 4.52 | < 4.52 | < 4.52 | < 4.52 | 5.77 | < 4.52 | 5.53 | < 4.52 | 5.32 | < 4.52 | 5.56 | < 4.52
